# Data as given in patent US10076519B2 (CYTOKINETICS, INC., priority 2010, dated 2018).
# Tested on: rabbit skeletal myofibrils (fast skeletal myofibrils)
# Assay: Activation of fast skeletal myofibrils (PUMA assay, PK/LDH-coupled ATPase at pCa25)
# Assay type: biochemical
# Procedure, shortened: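 ATPase activity of Triton-washed rabbit skeletal myofibrils, roughly 90% fast fibres, tracked by NADH loss at 340 nm through a PK/LDH-coupled ADP-regenerating system. Calcium set to 25% of maximal activity (pCa25), in PIPES 12 mM pH 6.8 with 2 mM MgCl2 and 1 mM DTT; AC1.4 reported.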
# [1] = median AC1.4 reported as class, procedure of Example 39
# [2] = AC1.4 determined according to the procedure of Example 39, reported as class symbols
SMILES,Mean AC1.4 [1],Mean AC1.4 [2],other results
CC(=O)NCc1cccc(-c2ccc(NC[C@]3(c4ncccc4F)C[C@H](F)C3)nn2)c1 [N-({3-[6-({[3-fluoro-1-(3-fluoro(2-pyridyl))cyclobutyl]methyl}ami-no)pyridazin-3-yl]phenyl}methyl)acetamide],B (B=1-10 uM),–,–
"CC(=O)NCc1nc(-c2ccc(NCC3(c4ncccc4F)CCC3)nn2)cs1 [N-({4-[6-({[(3-fluoro-2-pyridyl)cyclobutyl]methyl}ami-no)pyridazin-3-yl]-1,3-thiazol-2-yl}methyl)acetamide]",D (D=>20 uM),–,–
CC(=O)NCc1ccc(F)c(-c2ccc(NC[C@]3(c4ncccc4F)C[C@H](F)C3)nn2)c1 [N-({4-fluoro-3-[6-({[3-fluoro-1-(3-fluoro(2-pyridyl))cyclobutyl]methyl}ami-no)pyridazin-3-yl]phenyl}methyl)acetamide],B (B=1-10 uM),–,–
CC(=O)Nc1nc(-c2ccc(NCC(C)(C)c3ccc(F)cc3)nn2)c[nH]1 [N-[4-(6-{[2-(4-fluorophenyl)-2-methylpropyl]amino}pyridazin-3-yl)imidazol-2-yl]acetamide],–,C (C=10-20 uM),–
"NC(=O)Cc1csc(NC(=O)c2ccc(NCC3(c4ncccc4F)CCC3)nn2)n1 [N-[4-(carbamoylmethyl)(1,3-thiazol-2-yl)][6-({[(3-fluoro(2-pyridyl))cyclobutyl]methyl}ami-no)pyridazin-3-yl]carboxamide]",A (A=<1 uM),–,–
COC(=O)NCc1ccc(NCC(C)(C)c2ccc(F)cc2)nn1 [N-[(6-{[2-(4-fluorophenyl)-2-methylpropyl]amino}pyridazin-3-yl)methyl]methoxycarboxamide],–,D (D=>20 uM),–
O=C(NC1CC1)c1ccc(F)c(-c2ccc(NC[C@]3(c4ncccc4F)C[C@H](F)C3)nn2)c1 [N-cyclopropyl{4-fluoro-3-[6-({[3-fluoro-1-(3-fluoro(2-pyridyl))cyclobutyl]methyl}ami-no)pyridazin-3-yl]phenyl}carboxamide],A (A=<1 uM),–,–
CCNC(=O)c1ccc(F)c(-c2ccc(NC[C@]3(c4ncccc4F)C[C@H](F)C3)nn2)c1 [N-ethyl{4-fluoro-3-[6-({[3-fluoro-1-(3-fluoro(2-pyridyl))cyclobutyl]methyl}ami-no)pyridazin-3-yl]phenyl}carboxamide],B (B=1-10 uM),–,–
CC(C)(C)OC(=O)NCCCNC(=O)c1cccc(-c2ccc(NCC(C)(C)c3ccc(F)cc3)nn2)c1 [N-{3-[(tert-butoxy)carbonylamino]propyl}[3-(6-{[2-(4-fluorophenyl)-2-methylpropyl]amino}pyridazin-3-yl)phenyl]carboxamide],–,B (B=1-10 uM),–
CNC(=O)Nc1ccc(-c2ccc(NC[C@]3(c4ncccc4F)C[C@H](F)C3)nn2)cc1 [N-{4-[6-({[3-fluoro-1-(3-fluoro(2-pyridyl))cyclobutyl]methyl}ami-no)pyridazin-3-yl]phenyl}(methylamino)carbox-amide],A (A=<1 uM),–,–
CNC(=O)N(C)c1ccc(-c2ccc(NC[C@]3(c4ncccc4F)C[C@H](F)C3)nn2)cc1 [N-{4-[6-({[3-fluoro-1-(3-fluoro(2-pyridyl))cyclobutyl]methyl}ami-no)pyridazin-3-yl]phenyl}-N-methyl(methylamino)carboxamide],D (D=>20 uM),–,–
CC(=O)Nc1nccc(-c2ccc(NCC3(c4ncccc4F)CCC3)nn2)n1 [N-{4-[6-({[(3-fluoro-2-pyridyl)cyclobutyl]methyl}ami-no)pyridazin-3-yl]pyrimidin-2-yl}acetamide],–,–,"Mean AC1.4 (median AC1.4 class, procedure of Example 39): C (C=10-20 uM)"

# The next lines start with results.
Mean AC1.4 [1],Mean AC1.4 [2],SMILES,other results
B (B=1-10 uM),–,"CC(=O)NCc1ncc(-c2ccc(NCC3(c4ncccc4F)CCC3)nn2)s1 [N-({5-[6-({[(3-fluoro-2-pyridyl)cyclobutyl]methyl}ami-no)pyridazin-3-yl]-1,3-thiazol-2-yl}methyl)acetamide]",–
–,A (A=<1 uM),COC(=O)Nc1n[nH]c2ccc(-c3ccc(NCC(C)(C)c4ccc(F)cc4)nn3)cc12 [N-[5-(6-{[2-(4-fluorophenyl)-2-methylpropyl]amino}pyridazin-3-yl)(1H-indazol-3-yl)]methoxycarboxamide],–
–,A (A=<1 uM),CC(=O)Nc1n[nH]c2ccc(-c3ccc(NCC(C)(C)c4ccc(F)cc4)nn3)cc12 [N-[5-(6-{[2-(4-fluorophenyl)-2-methylpropyl]amino}pyridazin-3-yl)-1H-indazol-3-yl]acetamide],–
–,B (B=1-10 uM),CC(=O)Nc1ccc(-c2ccc(NCC(C)(C)c3ccc(F)cc3)nn2)cn1 [N-[5-(6-{[2-(4-fluorophenyl)-2-methylpropyl]amino}pyridazin-3-yl)-2-pyridyl]acetamide],–
D (D=>20 uM),–,"NC(=O)Cc1nnc(NC(=O)c2ccc(NCC3(c4ncccc4F)CCC3)nn2)s1 [N-[5-(carbamoylmethyl)(1,3,4-thiadiazol-2-yl)][6-({[(3-fluoro(2-pyridyl))cyclobutyl]methyl}ami-no)pyridazin-3-yl]carboxamide]",–
–,A (A=<1 uM),CC(=O)Nc1nc2cc(-c3ccc(NCC(C)(C)c4ccc(F)cc4)nn3)ccc2[nH]1 [N-[6-(6-{[2-(4-fluorophenyl)-2-methylpropyl]amino}pyridazin-3-yl)benzimidazol-2-yl]acetamide],–
B (B=1-10 uM),–,O=C(NC1CNC1)c1cccc(-c2ccc(NC[C@]3(c4ncccc4F)C[C@H](F)C3)nn2)c1 [N-azetidin-3-yl{3-[6-({[3-fluoro-1-(3-fluoro(2-pyridyl))cyclobutyl]methyl}ami-no)pyridazin-3-yl]phenyl}carboxamide],–
A (A=<1 uM),–,O=C(NC1CCC1)c1ccc(F)c(-c2ccc(NC[C@]3(c4ncccc4F)C[C@H](F)C3)nn2)c1 [N-cyclobutyl{4-fluoro-3-[6-({[3-fluoro-1-(3-fluoro(2-pyridyl))cyclobutyl]methyl}ami-no)pyridazin-3-yl]phenyl}carboxamide],–
B (B=1-10 uM),–,O=C(NC1CC1)c1cccc(-c2ccc(NC[C@]3(c4ncccc4F)C[C@H](F)C3)nn2)c1 [N-cyclopropyl{3-[6-({[3-fluoro-1-(3-fluoro(2-pyridyl))cyclobutyl]methyl}ami-no)pyridazin-3-yl]phenyl}carboxamide],–
C (C=10-20 uM),–,CCNC(=O)c1cc(-c2ccc(NC[C@]3(c4ncccc4F)C[C@H](F)C3)nn2)ccc1F [N-ethyl{2-fluoro-5-[6-({[3-fluoro-1-(3-fluoro(2-pyridyl))cyclobutyl]methyl}ami-no)pyridazin-3-yl]phenyl}carboxamide],–
D (D=>20 uM),–,"COC(=O)NC1CCc2sc(-c3ccc(NCC4(c5ncccc5F)CCC4)nn3)nc21 (stereo not shown) [N-{2-[6-({[(3-fluoro(2-pyridyl))cyclobutyl]methyl}ami-no)pyridazin-3-yl](4,5,6-trihydrocyclopenta[2,3-d]1,3-thiazol-4-yl)}methoxycarboxamide]",–
A (A=<1 uM),–,CNC(=O)Nc1ccc(-c2ccc(NC[C@]3(c4ncccc4F)C[C@H](F)C3)nn2)c(F)c1 [N-{3-fluoro-4-[6-({[3-fluoro-1-(3-fluoro(2-pyridyl))cyclobutyl]methyl}ami-no)pyridazin-3-yl]phenyl}(methylamino)carbox-amide],–
–,C (C=10-20 uM),CC(=O)NCc1ccc(-c2ccc(NCC(C)(C)c3ccc(F)cc3)nn2)cn1 [N-{[5-(6-{[2-(4-fluorophenyl)-2-methylpropyl]amino}pyridazin-3-yl)-2-pyridyl]methyl}acetamide],–
